According to BindingDB's records for doi:10.1016/j.ejmech.2022.114684 (Shanghai Institute of Materia Medica, 2022):

What follows are compounds tested against T1, Transcriptional coactivator YAP1 (Homo sapiens, UniProt P46937) (assay: Inhibition of YAP (unknown origin) incubated for 24 hrs by Promega Dual-Luciferase Reporter Assay).
T1 sequence (P46937 whole entry): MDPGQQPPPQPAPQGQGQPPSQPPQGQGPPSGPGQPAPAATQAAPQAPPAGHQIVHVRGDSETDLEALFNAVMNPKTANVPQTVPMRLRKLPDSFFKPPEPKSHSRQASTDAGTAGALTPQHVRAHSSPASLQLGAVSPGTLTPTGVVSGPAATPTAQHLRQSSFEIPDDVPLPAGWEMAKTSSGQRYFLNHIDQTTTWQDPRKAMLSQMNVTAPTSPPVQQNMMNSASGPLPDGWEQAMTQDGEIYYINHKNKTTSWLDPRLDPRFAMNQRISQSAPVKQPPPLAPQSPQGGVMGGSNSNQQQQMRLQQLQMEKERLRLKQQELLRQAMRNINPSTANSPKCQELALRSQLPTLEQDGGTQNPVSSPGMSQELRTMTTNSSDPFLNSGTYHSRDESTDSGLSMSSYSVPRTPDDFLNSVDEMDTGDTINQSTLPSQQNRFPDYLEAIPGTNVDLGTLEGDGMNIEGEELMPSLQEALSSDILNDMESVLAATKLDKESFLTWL
In the case of `CNS(=O)(=O)c1ccc(Nc2ccc(C(F)(F)F)cc2)c(-c2cn(C)cn2)c1`, the IC50 is reported as 0.001 µM.
For `COC(=O)c1cc(S(N)(=O)=O)ccc1NC1CCCCC1`, the IC50 was 0.454 µM.
With `CC(NC(=O)c1cc2nc(N(C)C)n(-c3ccc(Br)cc3)c2s1)c1ccccn1` (stereo unspecified) the IC50 was 0.391 µM.

The compounds below were run against T1, Transcriptional coactivator YAP1 (assay: Inhibition of YAP in HEK293T cells incubated for 24 hrs by Promega Dual-Luciferase Reporter Assay).
`CS(=O)(=O)NC(=O)c1ccc2c(Oc3ccc(C(F)(F)F)cc3)cccc2c1` [N-(methylsulfonyl)-5-(4-(trifluoromethyl)phenoxy)-2-naphthamide] showed an IC50 of under 0.1 µM.
In the case of `CC(C)NC(=O)c1ccc2c(Oc3cccc(Cl)c3)cccc2c1` [5-(3-chlorophenoxy)-N-isopropyl-2-naphthamide], the IC50 is reported as under 0.1 µM.
In the case of `N#CCNC(=O)c1ccc2c(Oc3ccc(C(F)(F)F)cc3)cccc2c1` [N-(cyanomethyl)-5-(4-(trifluoromethyl)phenoxy)-2-naphthamid], the IC50 is reported as under 0.1 µM.
